Marks after values point to notes of the source that are not given here.
Tests used:
[1] = system: OAB Wet patients (subjects with a diagnosis of overactive bladder); assay: Clinical Study 1: multicentre trial, diary record of urgency episodes and severity of urgency (VAS); type: in vivo, human; conditions: for No of episodes of urgency/day, Median change from baseline / No of episodes of urgency/day, Median % Change from baseline: 12 weeks of treatment; for No of episodes of urgency/day, Median change from baseline: placebo −1.2; for No of episodes of urgency/day, Median % Change from baseline: placebo −15.7; for No of episodes of urgency/day, Median difference from placebo / Severity of urgency/day, Median difference from placebo: corrected for placebo; for No of episodes of urgency/day, Median difference from placebo / Severity of urgency/day, Median change from baseline / Severity of urgency/day, Median difference from placebo: 12 weeks; for Severity of urgency/day, Median change from baseline: visual analogue scale (mild to severe), placebo −3.9; for Severity of urgency/day, Median difference from placebo: visual analogue scale
Protocol: Two novel methods for the assessment of urgency were used. The first was for use in a large scale clinical trial, and the second was for use in clinical laboratory studies. In both of these studies, darifenacin was administered as its hydrobromide salt. It was presented in slow release matrix tablets of the type described in U.S. Pat. No. 6,106,864, particularly Example 3. Tablets were administered once daily (o.d.). In this study, OAB Wet patients recorded each episode of urgency per day and the overall severity of urgency for each day in a diary. The severity of urgency was recorded by the use of a visual analogue scale (VAS) where the anchor points were mild and severe. Darifenacin (as hydrobromide salt; 7.5 mg, 15 mg and 30 mg of the active moiety, o.d.) and placebo were evaluated in subjects with a diagnosis of overactive bladder in a multicentre trial and symptoms of urgency were assessed using the VAS at baseline and at the end of the study (12 weeks of treatment). 108 patients (14 male, 94 female) received 7.5 mg; 107 patients (15 male, 92 female) received 15 mg; 114 patients (16 male, 98 female) received 30 mg; and 108 patients (18 male, 90 female) received placebo.

[2] = system: subjects with symptoms of urgency (mixture of OAB Wet and OAB Dry sufferers); assay: Clinical Study 2: warning time between onset of urgency and need to micturate, measured with a modified stop-watch; type: in vivo, human
Protocol: Two novel methods for the assessment of urgency were used. The first was for use in a large scale clinical trial, and the second was for use in clinical laboratory studies. In both of these studies, darifenacin was administered as its hydrobromide salt. It was presented in slow release matrix tablets of the type described in U.S. Pat. No. 6,106,864, particularly Example 3. Tablets were administered once daily (o.d.). This study used a novel method for measuring the time between the first onset of the urgency and the need to micturate, which is known as the ‘warning time’. A modified stop-watch was used which required the subject to press a button at the onset of urge and a second button when they felt they needed to micturate. Darifenacin (as the hydrobromide salt; 30 mg o.d.) and placebo were evaluated in subjects with symptoms of urgency. The subjects were a mixture of OAB Wet and OAB Dry sufferers. The ‘warning time’ was assessed at baseline and following 2 weeks of treatment using the modified stop watch. 36 patients (29 female, 7 male) received darifenacin; and 36 patients (22 female, 14 male) received placebo.

[3] = 15 mg o.d., baseline 8.6, P < 0.05
[4] = 30 mg o.d., baseline 8.4, P < 0.001
[5] = 7.5-30 mg, effect significantly greater than that produced by placebo
[6] = 15 mg o.d., baseline 56.2, P < 0.05
[7] = 30 mg o.d., baseline 53.5, P < 0.05
[8] = 30 mg o.d., 2 weeks of treatment

In the case of `NC(=O)C(c1ccccc1)(c1ccccc1)[C@@H]1CCN(CCc2ccc3c(c2)CCO3)C1` [Darifenacin, (S)-2-(1-[2-(2,3-dihydrobenzofuran-5-yl)ethyl]-3-pyrrolidinyl)-2,2-diphenyl-acetamide], the “No of episodes of urgency/day, Median change from baseline” value ([1]; 7.5 mg o.d., baseline 8.5) is reported as −1.8 episodes of urgency/day, the “No of episodes of urgency/day, Median % Change from baseline” value ([1]; 7.5 mg o.d.) is reported as −29.2% and the “No of episodes of urgency/day, Median change from baseline” value [1, 3] is reported as −2.3* episodes of urgency/day. The “No of episodes of urgency/day, Median % Change from baseline” value ([1]; 15 mg o.d.) was −26.9%, the “No of episodes of urgency/day, Median change from baseline” value [1, 4] was −3*** episodes of urgency/day and the “No of episodes of urgency/day, Median % Change from baseline” value ([1]; 30 mg o.d.) was −33.1%. The “Effect on number of episodes of urgency” value [1, 5] was “dose-related reduction”, the “Effect on overall severity of urgency” value [1, 5] was “dose-related reduction” and the “Effect on the symptom of urgency in subjects with overactive bladder (conclusion)” value ([1]; conclusion drawn from both clinical studies) was “clinically significant attenuation”. For the same molecule, the “No of episodes of urgency/day, Median difference from placebo” value ([1]; 7.5 mg o.d., baseline 8.5) was −0.5 episodes of urgency/day, the “No of episodes of urgency/day, Median difference from placebo” value [1, 3] was −1.1* episodes of urgency/day and the “No of episodes of urgency/day, Median difference from placebo” value [1, 4] was −1.4*** episodes of urgency/day. The “Severity of urgency/day, Median change from baseline” value ([1]; 7.5 mg o.d., baseline 53.2) was −7, the “Severity of urgency/day, Median change from baseline” value [1, 6] was −7* and the “Severity of urgency/day, Median change from baseline” value [1, 7] was −9.4*. The “Severity of urgency/day, Median difference from placebo” value ([1]; 7.5 mg o.d., baseline 53.2) was −2.5, the “Severity of urgency/day, Median difference from placebo” value [1, 6] was −3.8* and the “Severity of urgency/day, Median difference from placebo” value [1, 7] was −5.5*. For the same molecule, the “Effect on warning time compared with placebo” value [2, 8] was “significant increase”, the “Warning time, Median difference from placebo” value [2, 8] was 4.3 min and the “Warning Time, Week 2 (Median)” value ([2]; 30 mg o.d., 2 weeks of treatment, baseline median 4.7, placebo week 2 4.1, P < 0.01) was 8.4** Min. For the same molecule, the “Response of OAB Wet and OAB Dry subjects” value ([2]; both OAB Wet and OAB Dry subjects) was “responded to treatment”.
